Data published in US10526581B2, “Modulation of cardiac stem-progenitor cell differentiation, assays and uses thereof” (priority 2013, dated 2020).
“Also recorded” adds a separate entry of the source.

B1: Dkk-1: Dickkopf-1, an inhibitor of canonical Wnts (protein, UniProt O94907 32-266, looked up)
Dickkopf-related protein 1: TLNSVLNSNAIKNLPPPLGGAAGHPGSAVSAAPGILYPGGNKYQTIDNYQPYPCAEDEECGTDEYCASPTRGGDAGVQICLACRKRRKRCMRHAMCCPGNYCKNGICVSSDQNHFRGEIEETITESFGNDHSTLDGYSRRTTLSSKMYHTKGQEGSVCLRSSDCASGLCCARHFWSKICKPVLKEGQVCTKHRRKGSHGLEIFQRCYCGEGLSCRIQKDHHQASNSSRLHTCQRH
B2: BMP-10: cardiopoietic growth factor (protein, UniProt O95393 317-424, looked up)
Bone morphogenetic protein 10: NAKGNYCKRTPLYIDFKEIGWDSWIIAPPGYEAYECRGVCNYPLAEHLTPTKHAIIQALVHLKNSQKASKACCVPTKLEPISILYLDKGVVTYKFKYEGMAVSECGCR
B3: Wnt5a: non-canonical Wnt, cardiopoietic growth factor (protein, UniProt P41221 62-380, looked up)
Protein Wnt-5a: IIGAQPLCSQLAGLSQGQKKLCHLYQDHMQYIGEGAKTGIKECQYQFRHRRWNCSTVDNTSVFGRVMQIGSRETAFTYAVSAAGVVNAMSRACREGELSTCGCSRAARPKDLPRDWLWGGCGDNIDYGYRFAKEFVDARERERIHAKGSYESARILMNLHNNEAGRRTVYNLADVACKCHGVSGSCSLKTCWLQLADFRKVGDALKEKYDSAAAMRLNSRGKLVQVNSRFNSPTTQDLVYIDPSPDYCVRNESTGSLGTQGRLCNKTSEGMDGCELMCCGRGYDQFKTVQTERCHCKFHWCCYVKCKKCTEIVDQFVCK
B4: Wnt3a: soluble Wnt-3a, canonical Wnt growth factor (protein, UniProt P56704 19-352, looked up)
Protein Wnt-3a: SYPIWWSLAVGPQYSSLGSQPILCASIPGLVPKQLRFCRNYVEIMPSVAEGIKIGIQECQHQFRGRRWNCTTVHDSLAIFGPVLDKATRESAFVHAIASAGVAFAVTRSCAEGTAAICGCSSRHQGSPGKGWKWGGCSEDIEFGGMVSREFADARENRPDARSAMNRHNNEAGRQAIASHMHLKCKCHGLSGSCEVKTCWWSQPDFRAIGDFLKDKYDSASEMVVEKHRESRGWVETLRPRYTYFKVPTERDLVYYEASPNFCEPNPETGSFGTRDRTCNVSSHGIDGCDLLCCGRGHNARAERRREKCRCVFHWCCYVSCQECTRVYDVHTCK
B5: BMP-4: cardiopoietic growth factor (protein, UniProt P12644 293-408, looked up)
Bone morphogenetic protein 4: SPKHHSQRARKKNKNCRRHSLYVDFSDVGWNDWIVAPPGYQAFYCHGDCPFPLADHLNSTNHAIVQTLVNSVNSSIPKACCVPTELSAISMLYLDEYDKVVLKNYQEMVVEGCGCR

Legend:
[1] = test system: Nestin^pos progenitor cells from clonal-derived c-kit^pos eCSCs; experiment: neurogenic differentiation of Nestin^pos cells from clonal c-kit^pos eCSCs; type: cell-based, rat; settings: differentiation medium, 7 days
Text: It has been previously shown that cardiac side population cells that express the neural progenitor marker, Nestin, can be induced to differentiate into the ectoderm layer, producing neurons and glial cells (15). We then purified for a population of Nestin^pos progenitor cells from clonal-derived c-kit^pos eCSCs. When placed into differentiation medium supplemented with Retinoic Acid or LIF for 7 days, we found up-regulation of GFAP, MATH2/NeuroD6, a neuron specific transcription factor (FIG. 3C), β-3 tubulin arrayed in filaments and bundles (FIG. 3C), neuron-specific enolase (FIG. 3C), acetylcholintransferase (FIG. 3C), doublecortin (DCX), and S-100β (FIG. 3C). Furthermore, after RA differentiation, cells had characteristics of neuronal dendrites, indicating a morphological change that resembled neurons (FIG. 3C).

[2] = test system: c-kit^pos eCSCs; experiment: cardiomyocyte differentiation of c-kit^pos eCSCs in differentiation medium (cTnI^pos cells, qRT-PCR); type: cell-based, rat; settings: for number of myocyte differentiating (cTnI^pos) cells / transcription of myogenic lineage markers: differentiation medium (LIF withdrawal); for transcription of myogenic lineage markers: qRT-PCR; for differentiation of eCSCs into the cardiomyocyte lineage (myocyte specification): differentiation medium
Description: FIGS. 4(A-E). […] Nuclei were identified by DAPI in blue. Bar=50 μm. […] Data are Mean±SD of n=6/condition. […]
RNA was extracted using Qiagen RNeasy columns and was reverse transcribed using first strand cDNA synthesis with random or oligo-dT primers (Applied Biosystems). Residual amounts of DNA were removed by on-column DNase treatment using the RNase-Free DNase Set (Qiagen) during the RNeasy procedure. Quantitative RT-PCR was performed using SYBR Green (BioRad) on a MyIQ thermocycler (BioRad). The PCR-reaction included 2 μl of template cDNA, and 300 nM forward and reverse primers. PCR efficiency was evaluated by using a standard curve of five serial dilution points. Data were analysed using BioRad IQ software and mRNA was normalized to the housekeeping gene, GAPDH. All reactions were carried out in triplicate.

[3] = test system: c-kit^pos CD45^neg eCSCs; experiment: BrdU incorporation proliferation assay of c-kit^pos eCSCs with cardiopoietic growth factors and Wnt or TGF-β modulators; type: cell-based, rat; settings: in vitro
Description: (§1) c-kit^posCD45^neg eCSCs express functional receptors for these cardiopoetic factors (cGFs) (FIG. 4). In particular, both TGF-β1 and Wnt receptors are activated and signal to their known downstream effectors in eCSCs isolated from ISO injured hearts (FIG. 4). We thus directly tested in vitro the growth response of freshly isolated c-kit^pos CD45^neg eCSCs grown in limited serum (1% ESQ-FBS) to individual cGFs. Dose-response curves were performed to determine the optimal concentration for each cGF (FIG. 13A-H). […] These effects were confirmed by qRT-PCR of cardiomyocyte-specific mRNAs (FIG. 5).
(§2) Wnt/β-catenin and TGF-β/SMADs signaling play critical roles in the regulation of embryonic as well as different tissue-specific stem cell fate (21-23). In particular, these two signaling pathways have distinct functions in mammalian cardiogenesis (24-27). Thus, to extend our findings we have tested through gain and loss of function experiments the effects of Wnt/β-catenin and TGF-β/SMADs signaling pathways on c-kit^pos eCSC fate in vitro. […] To disrupt Wnt/ρ-catenin, c-kit^pos eCSCs were either treated with Dickkopf-1 (Dkk-1), an inhibitor of canonical Wnts or transfected with a specific short hairpin RNA for β-catenin (β-cat^shRNA). […] The positive and negative modulators of Wnt/β-catenin physiologically acted on their known molecular targets by respectively stabilizing or degrading β-catenin and its LEF/TCF-dependent transcriptional activity (FIG. 6). […] On the other hand, Dkk-1 increased c-kit^pos CSC myocyte specification (FIG. 5), even though its effect was not sufficient to produce a fully differentiated phenotype as indicated by the lack of cells which expressed abundant and organised sarcomeric structures (FIG. 5).

[4] = test system: rats after ISO damage; settings: rat, in vivo
[5] = test system: c-kit^pos CD45^neg eCSCs; experiment: clonogenic assay of c-kit^pos eCSCs; type: cell-based, rat; settings: in vitro
Description: as §1, §2

[6] = test system: hCSCs; experiment: stimulation of hCSCs with inflammatory cytokines, immunogenicity molecules; type: cell-based, human
Text: The human c-kit CSCs (hCSCs) from all the donors tested so far (n=8) expressed normal levels of the HLA class I and no detectable levels of HLA class II and the co-stimulatory molecules CD40, CD80 and CD 86 (see primary data example below)> they also fail to express CD 275 but express high levels of PD-L1 (CD274).

[7] = test system: CSCs^GFP/TK and adult rat ventricular myocytes (ARVM); experiment: GCV in vitro on CSCs^GFP/TK growth and on co-cultured adult rat ventricular myocytes; type: cell-based
Description: c-kit^pos CSCs were grown in CSC growth medium consisting of Dulbecco's MEM/Ham's F12 (DMEM/F12; […] Millipore), bFGF (10 ng/ml; Peprotech), EGF (20 ng/ml; Peprotech), insulin-transferrin-selenite (ITS; […] Ganciclovir (GCV, 10^−5M) was added and cells were cultured for 3 and 7 days. Mouse c-kit^pos CSCs or c-kit^pos CSC-derived cardiospheres were cultured on glass chamber slides (BD Falcon), fixed with 4% PFA for 20 min, and then stained. […] For cardiomyocyte/CSC^GFP/TK co-culture assays, 3× wells/condition were fixed and stained to assess the number of apoptotic (TdT and caspase-3) cardiomyocytes (Kawaguchi et al., 2010). Cardiomyocytes were identified by co-staining for cTnI. The percentage of TdT-positive and caspase-3 positive cardiomyocytes was determined by counting 20 random fields at ×40 magnification for each well. Numbers were expressed as a percentage of TdT- or caspase-3 positive cardiomyocytes relative to the total number of cardiomyocytes counted. FITC or Texas Red-conjugated 2° Abs were used. Nuclei were stained with DAPI. Fluorescence was visualized and images acquired with confocal microscopy (Zeiss LSM 510 or 710).

[8] = test system: rats with ISO+5-FU cardiomyopathy

Molecule | number of myocyte differentiating (cTnI^pos) cells [2] | transcription of myogenic lineage markers [2] | c-kit^pos eCSC proliferation (growth, expansion) [3] | c-kit^pos eCSC clonogenicity [5] | also measured
LIF: supplement of the neural differentiation medium |  |  |  |  | expression of neural markers (GFAP, MATH2/NeuroD6, β-3 tubulin and others) [1]: up-regulation
O=C1Nc2cc(Br)ccc2/C1=C1/Nc2ccccc2/C1=N\O [BIO, 6-bromoindirubin-3′-oxime] | significantly reduced | significantly reduced | stimulate |  | 
IGF-1: cardiopoietic growth factor |  |  | significantly increased |  | 
O=c1[nH]cc(F)c(=O)[nH]1 [5-FU, 5-fluorouracil] |  |  |  |  | toxic effects of the 5-FU regime [4]: did not cause any cellular or functional cardiac or extra-cardiac toxic effects
TGF-β1: cardiopoietic growth factor | significantly induced | significantly induced | did not affect; also recorded: Neither BMP-2, BMP-4, TGF-β1 supplementation nor Smad2 knock-down affected | did not affect; also recorded: Neither BMP-2, BMP-4, TGF-β1 supplementation nor Smad2 knock-down affected | differentiation of eCSCs into the cardiomyocyte lineage (myocyte specification) [2]: promoted differentiation
IFNγ: inflammatory cytokine |  |  |  |  | expression of HLA class I and class II on hCSCs [6]: significantly enhanced; expression of the co-stimulatory molecules CD40, CD80 and CD 86 on hCSCs [6]: does not induce
FGF-2: cardiopoietic growth factor |  |  | significantly increased |  | 
Nc1nc(O)c2ncn(COC(CO)CO)c2n1 [GCV, Ganciclovir] |  |  |  |  | adult rat ventricular myocyte (ARVM) apoptosis ([7]; GCV 10^−5 M, alone or co-cultured with CSC^GFP/TK): does not cause any relevant effect; growth of Lenti-GFP/TK-transfected CSCs (CSCs^GFP/TK) ([7]; GCV 10^−5 M, in vitro): growth arrest; survival of adult rat ventricular CMs cultured with CSCs^GFP/TK ([7]; GCV at a concentration sufficient to kill the CSCs^GFP/TK): does not affect survival; effect of GCV treatment on recovered cellular and functional parameters ([8]; ISO+5-FU+CSCs^GFP/TK group): dramatic reversal of all the recovered cellular and functional parameters; adverse effects of GCV treatment ([8]; rat, in vivo): did not cause any histological or functional adverse effects
HGF: cardiopoietic growth factor |  |  | significantly increased |  | 
B1 |  |  | significant decrease | significant decrease | differentiation of eCSCs into the cardiomyocyte lineage (myocyte specification) [2]: increased
B2 | significantly induced | significantly induced |  |  | 
B3 |  |  | did not affect | did not affect | differentiation of eCSCs into the cardiomyocyte lineage (myocyte specification) [2]: promoted differentiation
B4 | significantly reduced | significantly reduced | significantly increased | most effective | c-kit^pos eCSC proliferation (growth, expansion) ([3]; listed as Wnt-3a): stimulate; c-kit^pos eCSC clonogenicity ([5]; listed as Wnt-3a): stimulate
B5 | significantly induced | significantly induced | did not affect; also recorded: Neither BMP-2, BMP-4, TGF-β1 supplementation nor Smad2 knock-down affected | did not affect; also recorded: Neither BMP-2, BMP-4, TGF-β1 supplementation nor Smad2 knock-down affected | differentiation of eCSCs into the cardiomyocyte lineage (myocyte specification) [2]: promoted differentiation
